Test results: article PMC4623604, “Discovery of Small Molecules that Inhibit the Disordered Protein, p27^Kip1” (Scientific Reports, 2015)

Assays:
p27-D2-FL/Cdk2/cyclin A = target: T1, p27-D2-FL/Cdk2/cyclin A (Homo sapiens, UniProt P46527, C99S/R93C); assay: Fluorescence anisotropy displacement of p27-D2-FL from Cdk2/cyclin A; format: binding; settings: 20 nM p27-D2-FL, 300 nM Cdk2/cyclin A, SJ403 0-3 mM; read-out: IC50, reduction of fluorescence anisotropy of p27-D2-FL (displacement from Cdk2/cyclin A)
T1 construct: p27-D2 (residues 58-105 of human p27); 6xHis (N, cleaved yes); made in house; host or cells: E. coli for p27-D2
T1 sequence (P46527 58-105 R93C/C99S): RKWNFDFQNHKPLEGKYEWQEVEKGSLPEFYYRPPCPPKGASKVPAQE
Source text: We used the Group 2 molecule, SJ403 (Suppl. Table 1b), to test our hypothesis that molecules that bind to p27 can alter its Cdk regulatory function. […] We first used fluorescence anisotropy (FA) to monitor displacement of a single-cysteine (Cys) mutant of p27-D2, with arginine 93 mutated to Cys (R93C) and labeled with Alexa Fluor 488 (p27-D2-FL), from Cdk2/cyclin A by SJ403.
The p27-D2-C99S-R93C mutant was conjugated with Alexa Fluor488-C5-Maleimide (Life Technologies, p27-D2-FL) in buffer containing 20 mM Na phosphate, pH7.3, 20 mM NaCl according to the manufacturer’s protocol. The conjugated protein was further purified by reverse-phase high performance liquid chromatography (HPLC) using a C4 column (Vydac) and 0.1% trifluoroacetic acid-containing water/acetonitrile solvent system. Lyophilized HPLC fractions were resuspended in buffer containing 20 mM Na phosphate, pH 7, 200 mM NaCl, 3.5 mM TCEP. Fluorescence anisotropy measurements were performed at 25 °C on a Horiba Fluorolog 3 spectrofluorometer. Briefly, p27-D2-FL (20 nM) was mixed with Cdk2/Cyclin A (300 nM) and added to the required amount of lyophilized compound (SJ403). All samples have been incubated overnight in the dark at 4 °C prior to fluorescence measurements. Fluorescence anisotropy binding data was analyzed using KaleidaGraph. […]

p27-KID mutants [1] = assay: 2D NMR binding mapping with p27-KID mutants; set-up: species or system human
Source text: (§1) (Fig. 7a–c); these interaction sites are all within the Cdk2-binding D2 sub-domain. […] In fact, sub-domain D2 contains eight of the nine aromatic amino acids found within p27; a ninth, F33, is found within sub-domain D1 but […] to small molecules. Group 1 molecules caused the largest CSPs for residues F87, Y88 and Y89 within sub-region D2.3 and Group 2 molecules perturbed resonances for these residues as well as for residues W60, N61 (sub-region D2.1) and E75, W76 and Q77 (sub-region D2.2).
(§2) The p27 constructs were expressed in E. Coli with an N-terminal 6xHis affinity tag after sub-cloning into pET28a (Novagen) using established procedures. […]
(§3) Screening and validation NMR experiments were performed at 298 K (25 °C) using either a Varian Inova 600 MHz spectrometer equipped with a triple resonance (HCN) room temperature gradient probe or a Bruker Avance 600 MHz spectrometer equipped with TCI cryogenic gradient probe and a SampleJet sample changer. Fragment molecules were initially analyzed as pools of five molecules dissolved at 10 mM each in DMSO-D6. […] NMR spectra were recorded for compound pools without and with protein. […] 2D ^1H-^15N TROSY-HSQC NMR experiments with ^2H/^13C/^15N-p27-D2/Cdk2/cyclin A and SJ403 have been recorded at 308 K (35 °C). […] NMR spectra were processed using Bruker Topspin software and analyzed using computer-aided resonance assignment (CARA) software.

p27-KID mutants [2] = target: T2, p27-KID mutants (Homo sapiens, UniProt P46527, Y88A); assay: 2D NMR binding mapping with p27-KID mutants
T2 construct: 6xHis (N, cleaved yes); made in house; host or cells: E. coli (pET28a)
T2 sequence (P46527 22-105 Y88A): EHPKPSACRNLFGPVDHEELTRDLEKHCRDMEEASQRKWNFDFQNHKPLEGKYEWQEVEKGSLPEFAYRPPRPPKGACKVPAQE
Source text: as §1, §2, §3

Cdk2/cyclin A = target: T3, Cdk2/cyclin A (Homo sapiens, UniProt P24941); assay: Cdk2/cyclin A kinase activity assay (Histone H1 substrate); format: biochemical; settings: SJ403 alone, 10 μM to 3 mM, 200 pM Cdk2/cyclin A
T3 construct: Full length human Cdk2, active Cdk2 (phosphorylated at threonine 160); truncated human cyclin A (residues 173–432); made in house
Protocol: Cdk2/Cyclin A (200 pM) was mixed with Histone H1 (15 μM; EMD Millipore), p27-D2 (200 nM) and varied amounts of lyophilized SJ403 and incubated overnight at 4 °C. The effect of the SJ403 compound on Cdk2 activity was determined by performing similar experiments in the absence of p27-D2. Subsequently, ATP (50 μM total concentration, of which 6 μCi γ ^32P-ATP (PerkinElmer, Inc)) was added to each reaction and further incubated for 35 minutes at 30 °C. […] The sample buffer contained 20 mM HEPES pH 7.3, 25 mM sodium β-glycerolphosphate, 15 mM MgCl2, 16 mM EGTA, 0.5 mM Na3VO4 and 10 mM DTT. The reactions were quenched by addition of SDS-gel loading buffer (5 μL) and then analyzed by SDS-PAGE (10 μL). The gels were dried at 70 °C under vacuum and a phosphoimager (GE Healthcare, Piscataway, NJ) was used to quantify the ^32P-Histone H1 bands. IC50 values were determined by curve fitting using KaleidaGraph software. Experiments were performed in triplicate and mean IC50 and standard deviations of the mean values are reported.

IC50 (p27-D2-FL/Cdk2/cyclin A): 475 ± 67 µM
effect on Cdk2/cyclin A activity in the absence of p27-D2 (Cdk2/cyclin A): substantially inhibited
Compound: CCn1c(C)c(C)n2c3c(=O)n(C)c(=O)n(C)c3nc12 [SJ403]
CSPs with doubly mutated p27-KID variants (W60A-W76A, W60F-W76F) (p27-KID mutants [1]): only very weak CSPs within the F87YY89 aromatic cluster
CSPs with Y88 to A p27-KID mutant (p27-KID mutants [2]): caused CSPs near the two W residues (W60 or W76) but not within the F87A88Y89 region
